In patent US7655392B2, “Quenching methods for red blood cell inactivation process” (priority 2004, dated 2010):
Like-named read-outs stand apart in the source and are kept apart here.

Tested on: Serratia marcescens
Type: cell-based
[1] = Table 2B: 0.2 mM PIC-1, then 20 mM glutathione+2 eq base after 1 min
[2] = Table 2B: 0.2 mM PIC-1, then 20 mM glutathione+2 eq base after 5 min
[3] = Table 2B: 0.2 mM PIC-1, then 20 mM glutathione+2 eq base after 10 min
[4] = Table 2B: 0.2 mM PIC-1, then 20 mM glutathione+2 eq base after 20 min
[5] = Table 2B: 0.2 mM PIC-1 and 2 mM glutathione, 0 eq base, simultaneous
[6] = Table 2B: 0.2 mM PIC-1 and 20 mM glutathione, 0 eq base, simultaneous
[7] = Table 2B: 20 mM glutathione+2 eq base, then 0.2 mM PIC-1 after 1 min
[8] = Table 2B: 20 mM glutathione+2 eq base, then 0.2 mM PIC-1 after 10 min
[9] = Table 5A: 0.2 mM PIC-1, then 20 mM GSH+2 eq base after 1 min
[10] = Table 5A: 10 mM Cys+10 mM GSH, 2 eq base each, then 0.2 mM PIC-1 after 10 min
[11] = Table 5A: 15 mM Cys+5 mM GSH, 2 eq base each, then 0.2 mM PIC-1 after 10 min
[12] = Table 5A: 20 mM Cys+2 eq base, then 0.2 mM PIC-1 after 10 min
[13] = Table 5A: 20 mM GSH+2 eq base, then 0.2 mM PIC-1 after 10 min
[14] = Table 5B: 0.2 mM PIC-1+2 mM GSH, 0 eq base, no delay
[15] = Table 5B: 5 mM Cys+2 eq base, then 0.2 mM PIC-1 after 5 min
[16] = Table 5B: 5 mM Cys+2 eq base, then 0.2 mM PIC-1 after 10 min
[17] = Table 5B: 5 mM Cys+2 eq base, then 0.2 mM PIC-1 after 20 min
[18] = Table 5B: 10 mM Cys+2 eq base, then 0.2 mM PIC-1 after 10 min
[19] = Table 5B: 15 mM Cys+2 eq base, then 0.2 mM PIC-1 after 10 min
[20] = Table 5B: 20 mM Cys+2 eq base, then 0.2 mM PIC-1 after 5 min
[21] = Table 5B: 20 mM Cys+2 eq base, then 0.2 mM PIC-1 after 10 min
[22] = Table 5B: 20 mM GSH+2 eq base, then 0.2 mM PIC-1 after 10 min
[23] = Table 5B: […] Cys+2 eq base, then 0.2 mM PIC-1 after 10 min

SMILES: O=C(CCNc1c2ccccc2nc2ccccc12)OCCN(CCCl)CCCl [PIC-1]
- Log S. marcescens titer (0.2 mM PIC-1 first, 20 mM glutathione+2 eq base shortly after (sequential)): 4.0 Log
- Log S. marcescens reduction [1]: 3.36 Log
- Log S. marcescens titer [1]: 3.40 Log
- Log S. marcescens reduction [2]: 3.89 Log
- Log S. marcescens titer [2]: 2.87 Log
- Log S. marcescens reduction [3]: 4.96 Log
- Log S. marcescens titer [3]: 1.80 Log
- Log S. marcescens reduction [4]: 6.76 Log
- Log S. marcescens titer [4]: 0.00 Log
- Log S. marcescens reduction [5]: 5.25 Log
- Log S. marcescens titer [5]: 1.51 Log
- Log S. marcescens reduction [6]: 0.71 Log
- Log S. marcescens titer [6]: 6.05 Log
- Log S. marcescens reduction [7]: 3.66 Log
- Log S. marcescens titer [7]: 3.10 Log
- Log S. marcescens reduction [8]: 3.68 Log
- Log S. marcescens titer [8]: 3.08 Log
- Log S. marcescens reduction [9]: 2.7 Log
- Log S. marcescens titer [9]: 4.8 Log
- Log S. marcescens reduction [10]: 3.0 Log
- Log S. marcescens titer [10]: 4.5 Log
- Log S. marcescens reduction [11]: 3.7 Log
- Log S. marcescens titer [11]: 3.8 Log
- Log S. marcescens reduction [12]: 3.1 Log
- Log S. marcescens titer [12]: 4.4 Log
- Log S. marcescens reduction [13]: 3.4 Log
- Log S. marcescens titer [13]: 4.1 Log
- Log S. marcescens reduction [14]: 4.1 Log
- Log S. marcescens titer [14]: 3.5 Log
- Log S. marcescens reduction [15]: 3.2 Log
- Log S. marcescens titer [15]: 4.4 Log
- Log S. marcescens reduction [16]: 3.2 Log
- Log S. marcescens titer [16]: 4.4 Log
- Log S. marcescens reduction [17]: 2.9 Log
- Log S. marcescens titer [17]: 4.7 Log
- Log S. marcescens reduction [18]: 2.7 Log
- Log S. marcescens titer [18]: 4.9 Log
- Log S. marcescens reduction [19]: 3.1 Log
- Log S. marcescens titer [19]: 4.5 Log
- Log S. marcescens reduction [20]: 3.2 Log
- Log S. marcescens titer [20]: 4.4 Log
- Log S. marcescens reduction [21]: 3.0 Log
- Log S. marcescens titer [21]: 4.6 Log
- Log S. marcescens reduction [22]: 3.2 Log
- Log S. marcescens titer [22]: 4.4 Log
- Log S. marcescens reduction [23]: 3.7 Log
- Log S. marcescens titer [23]: 3.9 Log
- log inactivation (all conditions of Tables 5A, 5B, 5C (cysteine and/or glutathione, 0.2 mM PIC-1)): at least 3 log
- inactivation difference from the standard condition (cysteine or glutathione quenching, Tables 5A-5C): 1-1.5 log
